The source made the active and inactive calls. The rule behind the calls is not given here.
Tests used:
[1] = system: MGC-803; assay: cells; details: Homo sapiens, MGC-803, 48 h
Description: Antiproliferative activity against human MGC-803 cells assessed as inhibition of cell growth incubated for 48 hrs by MTT assay

[2] = system: HCT-116; assay: cells; details: Homo sapiens, HCT-116, 48 h
Description: Antiproliferative activity against human HCT-116 cells assessed as inhibition of cell growth incubated for 48 hrs by MTT assay

[3] = system: KYSE-450; assay: cells; details: Homo sapiens, KYSE-450, 48 h
Description: Antiproliferative activity against human KYSE-450 cells assessed as inhibition of cell growth incubated for 48 hrs by MTT assay

[4] = target: Lysine-specific histone demethylase 1A (Homo sapiens, UniProt O60341); assay: Inhibition of recombinant LSD1 (unknown origin) using H3K4me2 peptide as substrate preincubated for 10 mins followed by substrate addition and measured after 30 mins by amplex red based fluorescence microplate reader analysis
[5] = system: MGC-803; assay: Antitumor activity against human MGC-803 cells xenografted in BALB/c nude mouse assessed as tumor growth inhibition at 25 mg/kg/day, ip administered every day for 21 days; type: functional, organism-based; details: time 21.0 day
[6] = system: MGC-803; assay: Antitumor activity against human MGC-803 cells xenografted in BALB/c nude mouse assessed as reduction in tumor weight at 25 mg/kg/day, ip administered every day for 21 days; type: functional, organism-based; details: time 21.0 day
[7] = system: MGC-803; assay: Antitumor activity against human MGC-803 cells xenografted in BALB/c nude mouse assessed as reduction in tumor volume at 25 mg/kg/day, ip administered every day for 21 days; type: functional, organism-based; details: time 21.0 day

| SMILES | IC50 [1] [nM] | IC50 [2] [nM] | IC50 [3] [nM] | IC50 [4] [nM] | Activity [5] | Activity [6] | Activity [7] |
| --- | --- | --- | --- | --- | --- | --- | --- |
| COc1ccc(CN(C(=O)CSC(=S)N2CCN(CCO)CC2)c2cc(OC)c(OC)c(OC)c2)cc1O | 540 | 520 | 490 |  |  |  |  |
| COc1ccc(CN(C(=O)CSC(=S)N2CCN(c3ccc(Cl)cc3)CC2)c2cc(OC)c(OC)c(OC)c2)cc1O | 38 | 59 | 45 |  |  |  |  |
| COc1cc2c(c(OC)c1OC)-c1ccc(OC)c(=O)cc1[C@@H](NC(C)=O)CC2 [COLCHICINE] | 56 | 78 | 70 |  |  |  |  |
| C/C=C/C(=O)N(Cc1ccc(OC)c(O)c1)c1cc(OC)c(OC)c(OC)c1 | 28 | 54 | 62 |  |  |  |  |
| COc1ccc(CN(C(=O)CSC(=S)N2CCN(c3ccc(F)cc3)CC2)c2cc(OC)c(OC)c(OC)c2)cc1O | 39 | 46 | 67 |  |  |  |  |
| COc1ccc(CN(C(=O)CSC(=S)N2CCN(c3ccc(O)cc3)CC2)c2cc(OC)c(OC)c(OC)c2)cc1O | 78 | 100 | 86 |  |  |  |  |
| NC1CCC(N[C@@H]2C[C@H]2c2ccccc2)CC1 (stereo not given in full) | > 20000 | > 20000 | > 20000 |  |  |  |  |
| COc1cccc(N2CCN(C(=S)SCC(=O)N(Cc3ccc(OC)c(O)c3)c3cc(OC)c(OC)c(OC)c3)CC2)c1 | 75 | 150 | 59 |  |  |  |  |
| COc1ccc(CN(C(=O)CSC(=S)N2CCN(C(=O)OC(C)(C)C)CC2)c2cc(OC)c(OC)c(OC)c2)cc1O | 84 | 220 | 78 | 2670 |  |  |  |
| COc1ccc(N2CCN(C(=S)SCC(=O)N(Cc3ccc(OC)c(O)c3)c3cc(OC)c(OC)c(OC)c3)CC2)cc1 | 45 | 59 | 67 |  |  |  |  |
| COc1ccc(/C=C\c2cc(OC)c(OC)c(OC)c2)cc1O |  |  |  |  | Active | Active | Active |
| Cc1ccc(Cn2cc(CSC(=S)N3CCN(C(=O)OC(C)(C)C)CC3)nn2)cc1 | 2810 | 12800 | > 20000 |  |  |  |  |
| COc1ccc(CN(C(=O)CSC(=S)N2CCC(C(=O)OC(C)(C)C)CC2)c2cc(OC)c(OC)c(OC)c2)cc1O | 180 | 110 | 200 |  |  |  |  |
| COc1ccc(CN(C(=O)CSC(=S)N2CCN(c3ccc([N+](=O)[O-])cc3)CC2)c2cc(OC)c(OC)c(OC)c2)cc1O | 54 | 67 | 72 |  |  |  |  |
| CCCCN1CCN(C(=S)SCC(=O)N(Cc2ccc(OC)c(O)c2)c2cc(OC)c(OC)c(OC)c2)CC1 | 30 | 97 | 73 |  |  |  |  |
| COc1ccc(CN(C(=O)CSC(=S)N2CCN(C(=O)C3CC3)CC2)c2cc(OC)c(OC)c(OC)c2)cc1O | 120 | 100 | 200 |  |  |  |  |
| CCOC(=O)N1CCN(C(=S)SCC(=O)N(Cc2ccc(OC)c(O)c2)c2cc(OC)c(OC)c(OC)c2)CC1 | 79 | 89 | 69 |  |  |  |  |
| COc1ccc(CN(C(=O)CSC(=S)N2CCN(c3ccc(C#N)cc3)CC2)c2cc(OC)c(OC)c(OC)c2)cc1O | 26 | 79 | 37 |  |  |  |  |
| COc1ccc(CN(C(=O)CSC(=S)N2CCN(c3ccc(Br)cc3)CC2)c2cc(OC)c(OC)c(OC)c2)cc1O | 27 | 51 | 36 |  |  |  |  |
| COc1ccc(CN(C(=O)CSC(=S)N2CCN(c3ccccc3OC)CC2)c2cc(OC)c(OC)c(OC)c2)cc1O | 120 | 240 | 320 |  |  |  |  |
| COc1ccc(CN(C(=O)CSC(=S)N2CCC(c3ccccc3)CC2)c2cc(OC)c(OC)c(OC)c2)cc1O | 340 | 170 | 380 |  |  |  |  |
| COc1ccc(CN(C(=O)CSC(=S)N2CCN(c3ccccc3)CC2)c2cc(OC)c(OC)c(OC)c2)cc1O | 62 | 78 | 52 |  |  |  |  |

Second part, led by results:

| IC50 [1] [nM] | IC50 [2] [nM] | IC50 [3] [nM] | IC50 [4] [nM] | SMILES | Activity [5] | Activity [6] | Activity [7] |
| --- | --- | --- | --- | --- | --- | --- | --- |
| 250 |  | 310 |  | CCN1CCN(C(=S)SCC(=O)N(Cc2ccc(OC)c(O)c2)c2cc(OC)c(OC)c(OC)c2)CC1 |  |  |  |
| 270 | 820 | 750 |  | COc1ccc(CN(C(=O)CSC(=S)N2CCN(C)CC2)c2cc(OC)c(OC)c(OC)c2)cc1O |  |  |  |
| 460 |  | 340 |  | COc1ccc(CN(C(=O)CSC(=S)N2CCN(C(C)=O)CC2)c2cc(OC)c(OC)c(OC)c2)cc1O |  |  |  |
| 190 | 120 | 210 |  | COc1ccc(CN(C(=O)CSC(=S)N2CCN(C=O)CC2)c2cc(OC)c(OC)c(OC)c2)cc1O |  |  |  |
| 700 | 690 | 670 |  | CCOC(=O)C1CCN(C(=S)SCC(=O)N(Cc2ccc(OC)c(O)c2)c2cc(OC)c(OC)c(OC)c2)CC1 |  |  |  |
| 310 | 230 | 280 |  | COC(=O)C1CCN(C(=S)SCC(=O)N(Cc2ccc(OC)c(O)c2)c2cc(OC)c(OC)c(OC)c2)CC1 |  |  |  |
| 430 | 620 | 700 |  | COc1ccc(CN(C(=O)CSC(=S)N2CCN(C(C)(C)C)CC2)c2cc(OC)c(OC)c(OC)c2)cc1O |  |  |  |
| 1260 | 600 | 890 |  | COc1ccc(CN(C(=O)CSC(=S)N2CCC(OC)CC2)c2cc(OC)c(OC)c(OC)c2)cc1O |  |  |  |
| 120 | 480 | 210 |  | COc1ccc(CN(C(=O)CSC(=S)N2CCN(C3CC3)CC2)c2cc(OC)c(OC)c(OC)c2)cc1O |  |  |  |
| 140 | 160 | 160 |  | COC(=O)N1CCN(C(=S)SCC(=O)N(Cc2ccc(OC)c(O)c2)c2cc(OC)c(OC)c(OC)c2)CC1 |  |  |  |
| 380 | 890 | 860 |  | COc1ccc(CN(C(=O)CSC(=S)N2CCC(C)CC2)c2cc(OC)c(OC)c(OC)c2)cc1O |  |  |  |
| 480 | 640 | 530 |  | COc1ccc(CN(C(=O)CSC(=S)N2CCCC(C)C2)c2cc(OC)c(OC)c(OC)c2)cc1O (stereo not given) |  |  |  |
| 230 | 500 | 430 |  | COc1ccc(CN(C(=O)CSC(=S)N2CCN(S(C)(=O)=O)CC2)c2cc(OC)c(OC)c(OC)c2)cc1O |  |  |  |
| 560 | 800 | 460 |  | COc1ccc(CN(C(=O)CSC(=S)N2CCC(O)CC2)c2cc(OC)c(OC)c(OC)c2)cc1O |  |  |  |
| 100 | 160 | 170 |  | COc1ccc(CN(C(=O)CSC(=S)N2CCN(C(C)C)CC2)c2cc(OC)c(OC)c(OC)c2)cc1O |  |  |  |
